The values below come from ChEMBL document CHEMBL1201862, “PubChem BioAssay data set” (2004).

Each structure is given as a SMILES string.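 The compound was tested at five concentrations on cells cultured in 96-well plates, with a 48-hour exposure period. GI50 marks 50% less growth.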 The source made the active and inactive calls. No stated cut-off is given here; in the data, active = GI50 up to about 1.1 µM and inactive = higher.

Test systems include OVCAR-8; HL-60; HOP-92; CAKI-1; SNB-75; NCI-H226; 786-0; A498; OVCAR-5; SW-620; SN12C; TK-10; SK-MEL-28; Malme-3M; SF-268; UO-31; SF-295; U-251; HCC 2998; NCI-H460.
Experiment in all cases: growth of human tumour cells (NCI), 48 h

As for `CCc1cccc(C)c1NC(=O)CC1C(=O)Nc2ccccc2S1(=O)=O` (configuration not stated), the GI50 with OVCAR-8 is 19.8 µM (inactive); with HL-60, 12.1 µM (inactive); in the experiment on HOP-92, 12 µM (inactive); in the experiment on CAKI-1 it was 14.2 µM (inactive); with SNB-75 it was 16 µM (inactive); with NCI-H226, 33 µM (inactive). The GI50 in the experiment on 786-0 was 15.7 µM (inactive); in the experiment with A498, 21 µM (inactive); with OVCAR-5, 23.6 µM (inactive); in the experiment on SW-620 it was 15.2 µM (inactive); in the experiment with SN12C, 20.8 µM (inactive); with TK-10, 29.3 µM (inactive). In addition, the GI50 in the experiment on SK-MEL-28 is 18.5 µM (inactive); with Malme-3M it was 14.4 µM (inactive); with SF-268, 20.8 µM (inactive); in the experiment on UO-31, 13.5 µM (inactive); in the experiment on SF-295, 26.2 µM (inactive); with U-251 it was 16.9 µM (inactive). For the same compound, the GI50 was 16.8 µM (inactive) with HCC 2998 and 13.1 µM (inactive) with NCI-H460.

On to `COc1ccc2nc3c([N+](=O)[O-])ccc4c3c(c2c1)N=CN4CCCN(C)C`, for which the GI50 in the experiment on OVCAR-8 is 1.3 µM (inactive); in the experiment on HL-60, 2.77 µM (inactive); in the experiment on HOP-92, 1.99 µM (inactive); in the experiment with CAKI-1, 1.27 µM (inactive); in the experiment with SNB-75, 2.67 µM (inactive); in the experiment with NCI-H226 it was 7.18 µM (inactive). In addition, the GI50 with 786-0 is 0.614 µM (active); in the experiment with A498, 5.6 µM (inactive); in the experiment on OVCAR-5, 10.2 µM (inactive); in the experiment with SW-620, 0.44 µM (active); in the experiment with SN12C, 1.97 µM (inactive); in the experiment on TK-10, 1.45 µM (inactive). Further, the GI50 was 10 µM (inactive) in the experiment on SK-MEL-28; 6.3 µM (inactive) with Malme-3M; 2.77 µM (inactive) with SF-268; 2.38 µM (inactive) in the experiment on UO-31; 2.55 µM (inactive) with SF-295; 1.65 µM (inactive) in the experiment with U-251. Also, the figures for the GI50 in the experiment with HCC 2998 and in the experiment on NCI-H460 were 1.37 µM (inactive) and 0.773 µM (active), respectively.

With `Cc1nc2c(s/c(=N\N)n2-c2ccccc2)c(=O)[nH]1`, the GI50 in the experiment with OVCAR-8, in the experiment with HL-60, with HOP-92, in the experiment on CAKI-1, in the experiment on SNB-75 and in the experiment with NCI-H226 was > 100 µM (inactive) each time. For the same compound, the GI50 in the experiment with 786-0, in the experiment with A498, with OVCAR-5, in the experiment with SW-620, in the experiment with SN12C and in the experiment on TK-10 was > 100 µM (inactive) in each case. Besides, the GI50 in the experiment on SK-MEL-28, in the experiment on Malme-3M, in the experiment on SF-268, in the experiment on UO-31, with SF-295 and in the experiment on U-251 was > 100 µM (inactive) throughout. The GI50 with HCC 2998 and in the experiment with NCI-H460 was > 100 µM (inactive) throughout.

For `Oc1cc(Cl)cc2cccnc12`, the GI50 is 0.528 µM (active) in the experiment on OVCAR-8; 0.229 µM (active) in the experiment with HL-60; 3.25 µM (inactive) in the experiment with HOP-92; 5 µM (inactive) in the experiment on CAKI-1; 17.2 µM (inactive) in the experiment with SNB-75; 6.79 µM (inactive) in the experiment on NCI-H226. Further, the GI50 with 786-0 was 8.71 µM (inactive); in the experiment on A498, 11.5 µM (inactive); in the experiment on OVCAR-5, 4.85 µM (inactive); with SW-620, 1.65 µM (inactive); in the experiment with SN12C it was 1.7 µM (inactive); in the experiment with TK-10, 57.5 µM (inactive). In addition, the GI50 with SK-MEL-28 is 19.3 µM (inactive); in the experiment with Malme-3M it was 3.02 µM (inactive); in the experiment on SF-268 it was 0.296 µM (active); in the experiment on UO-31 it was 0.847 µM (active); in the experiment on SF-295, 0.288 µM (active); with U-251, 0.971 µM (active). Further, the GI50 was 24.5 µM (inactive) with HCC 2998 and 1.44 µM (inactive) with NCI-H460.

As for `N#Cc1c(-c2ccc(Cl)cc2)cc(-c2nc3ccccc3[nH]2)nc1N`, the GI50 with OVCAR-8 is 13 µM (inactive); in the experiment with HL-60, 11.2 µM (inactive); with HOP-92, 11 µM (inactive); in the experiment with CAKI-1, 17.9 µM (inactive); in the experiment with SNB-75 it was 10.8 µM (inactive); in the experiment on NCI-H226, 10.8 µM (inactive). The GI50 with 786-0 is 11.3 µM (inactive); in the experiment on A498, 8.85 µM (inactive); in the experiment with OVCAR-5, 19.5 µM (inactive); with SW-620, 15 µM (inactive); with SN12C, 13.4 µM (inactive); in the experiment with TK-10, 10.1 µM (inactive). Besides, the GI50 in the experiment with SK-MEL-28 is 12.2 µM (inactive); in the experiment on Malme-3M, 16.6 µM (inactive); with SF-268 it was 7.98 µM (inactive); in the experiment with UO-31, 9.1 µM (inactive); in the experiment on SF-295 it was 10.7 µM (inactive); in the experiment on HCC 2998, 4.02 µM (inactive). Further, the GI50 in the experiment with NCI-H460 is 7.19 µM (inactive).

Take `O=C(O)COc1ccc(C(=O)/C(SS/C(C(=O)c2ccc(OCC(=O)O)c(Cl)c2Cl)=C2\C=C(c3ccc(Br)cc3)SS2)=C2/C=C(c3ccc(Br)cc3)SS2)c(Cl)c1Cl`: the GI50 with OVCAR-8 was 5.16 µM (inactive); in the experiment on HL-60 it was 1.55 µM (inactive); with HOP-92, 3.5 µM (inactive); in the experiment with CAKI-1, 13.6 µM (inactive); in the experiment with SNB-75 it was 7.5 µM (inactive); in the experiment on NCI-H226 it was 6.81 µM (inactive). Further, the GI50 in the experiment with 786-0 was 3.87 µM (inactive); with A498 it was 18.2 µM (inactive); with OVCAR-5 it was 24.8 µM (inactive); with SW-620, 6.73 µM (inactive); in the experiment with SN12C, 6.32 µM (inactive); in the experiment on TK-10, 26.7 µM (inactive). Further, the GI50 in the experiment with SK-MEL-28 is 24.8 µM (inactive); in the experiment with Malme-3M it was 11.5 µM (inactive); in the experiment with SF-268, 2.82 µM (inactive); in the experiment with UO-31, 4.32 µM (inactive); in the experiment on SF-295, 5.58 µM (inactive); in the experiment on U-251, 3.47 µM (inactive). Besides, the GI50 with HCC 2998 is 10.2 µM (inactive); with NCI-H460, 19.3 µM (inactive).

Consider `COc1cc([N+](=O)[O-])ccc1NC1=CC(=O)CCC1`, for which the GI50 with OVCAR-8 was > 100 µM (inactive); with HL-60, > 100 µM (inactive); in the experiment on HOP-92 it was > 100 µM (inactive); with CAKI-1, 49.5 µM (inactive); in the experiment on SNB-75, 27.6 µM (inactive); in the experiment on NCI-H226, > 100 µM (inactive). Further, the GI50 with 786-0, with A498, in the experiment on OVCAR-5, in the experiment on SW-620, in the experiment on SN12C and in the experiment on TK-10 was > 100 µM (inactive) in each case. The GI50 was 59.4 µM (inactive) in the experiment with SK-MEL-28; > 100 µM (inactive) in the experiment on Malme-3M; > 100 µM (inactive) in the experiment on SF-268; > 100 µM (inactive) with UO-31; > 100 µM (inactive) with SF-295; > 100 µM (inactive) in the experiment with U-251. Moreover, the GI50 in the experiment on HCC 2998 and in the experiment on NCI-H460 was > 100 µM (inactive) throughout.

With `Cc1cc(C)n(C(=O)C(C)Sc2nnc(SC(C)C(=O)n3nc(C)cc3C)s2)n1` (configuration not stated), the GI50 with OVCAR-8, with HL-60, with HOP-92, with CAKI-1, with SNB-75 and with NCI-H226 was > 100 µM (inactive) in each case. The GI50 in the experiment on 786-0, in the experiment on A498, in the experiment with OVCAR-5, in the experiment on SW-620, in the experiment with TK-10 and in the experiment with SK-MEL-28 was > 100 µM (inactive) throughout. The GI50 in the experiment on Malme-3M, in the experiment with SF-268, in the experiment on UO-31, with SF-295, with U-251 and in the experiment with HCC 2998 was > 100 µM (inactive) each time. The GI50 with NCI-H460 is > 100 µM (inactive).

Turning to `CN1CCN(c2ccc3c(c2)NCC(=O)N3)CC1`, the GI50 in the experiment on OVCAR-8, in the experiment with HL-60, with HOP-92, with CAKI-1, in the experiment with SNB-75 and in the experiment with NCI-H226 was > 100 µM (inactive) in each case. Also, the GI50 with 786-0, in the experiment on A498, in the experiment with OVCAR-5, in the experiment on SW-620, in the experiment with TK-10 and in the experiment with SK-MEL-28 was > 100 µM (inactive) throughout. Also, the GI50 with Malme-3M, in the experiment on SF-268, in the experiment on UO-31, in the experiment with SF-295, in the experiment on U-251 and with HCC 2998 was > 100 µM (inactive) throughout. The GI50 with NCI-H460 is > 100 µM (inactive).

With `C=C1C(=O)O[C@@]23C1CC[C@@H](C)C2CC[C@@]1(C)OC31` (some centres not stated), the GI50 was 16.9 µM (inactive) with OVCAR-8; 2.72 µM (inactive) with HL-60; 8.79 µM (inactive) in the experiment on HOP-92; 5.75 µM (inactive) in the experiment with CAKI-1; 3.13 µM (inactive) in the experiment on SNB-75; 23.9 µM (inactive) in the experiment with NCI-H226. For the same compound, the GI50 was 5.71 µM (inactive) in the experiment on 786-0; 18.2 µM (inactive) with A498; 12.6 µM (inactive) in the experiment on OVCAR-5; 8.81 µM (inactive) in the experiment on SW-620; 7.24 µM (inactive) in the experiment on SN12C; 4.12 µM (inactive) in the experiment on TK-10. The GI50 in the experiment with SK-MEL-28 is 6.35 µM (inactive); with Malme-3M, 2.08 µM (inactive); in the experiment on SF-268 it was 13.7 µM (inactive); in the experiment with UO-31 it was 5.69 µM (inactive); with SF-295, 18.2 µM (inactive); with U-251, 6.35 µM (inactive). The values for the GI50 in the experiment on HCC 2998 and in the experiment with NCI-H460 were 4.9 µM (inactive) and 16.4 µM (inactive), respectively.
